Assay results reported in patent US20110301125A1, “Method for Treating Macular Degeneration” (SANOFI-AVENTIS, priority 2008, published 2011).
“Also recorded” adds a separate entry of the source.

Tests used:
[1] = test system: rat laser induced macular degeneration model (choroidal neovascularization); test: Example 1: rat laser-induced choroidal neovascularization, histopathology of CNV plaque thickness (first set of study); format: in vivo, Brown Norway rats (Rattus norvegicus)
From the text: Fifty male Brown Norway (strain BN/RijHsd) rats (Rattus norvegicus), 4-7 weeks old (50-124 g each), were purchased from Harlan (Indianapolis, Ind.), received in good condition. The animals were quarantined and acclimated for three (3) days. […] 50 animals were arbitrarily assigned to study groups and given permanent identification numbers.
The retinae (both eyes of each rat) were lased using a retinal lasering device with an attached Kowa PortSlit, SC14; Keeler Fison Indirect Ophthalmoscope (Lens 30 Diopter). Rats were briefly anesthetized and the eyes were dilated and coverslips were used as necessary to flatten the cornea. Each retina was lased with 186 mW, 75 μm spot sizes, 0.1 sec duration, applied to (approximately) 9-, 12- and 3-o'clock positions, 2-3 disk diameters from the optic nerve of each eye as feasible as determined by the surgeon. Rupture of the Bruch's membrane was identified by bubble formation, which occurred immediately at the site of photocoagulation. Rats were briefly anesthetized and administered fluoroscein to visualize the retinal vasculature post surgically and prior to necropsy. Representative photographs of the retinas were taken using a Kowa retinal camera for rodents. The photographs were taken to assure that vascular lesions were present immediately following the laser procedure and immediately prior to necropsy.
2-[4-(7-ethyl-5H-pyrrolo[2,3-b]pyrazin-6-yl)-phenyl]-propan-2-ol A and 2-(3-fluoro-phenyl)-4-methyl-pyrimidine-5-carboxylic acid indol-1-ylamide were formulated in vehicle twice weekly during the study. Vehicle consisted of 0.5% methylcellulose, 0.2% Tween 20 in sterile water for injection, and was formulated once weekly. 2-(3-fluoro-phenyl)-4-methyl-pyrimidine-5-carboxylic acid indol-1-ylamide test article was reconstituted in vehicle at 0.6, 2, and 6 mg/mL; 2-(3-fluoro-phenyl)-4-methyl-pyrimidine-5-carboxylic acid indol-1-ylamide control article was reconstituted at 2 mg/mL. All solutions were stored refrigerated at 2-8° C. between dose administrations, and mixed prior to each dose administration.
Animals were dosed via twice daily oral gavage at 5 mL/kg, starting immediately prior to lasing and continuing for 14 days. Dose volumes were recalculated weekly based on the most recent body weight. Note that animals were lased on two sequential days, but were sacrificed together on a single day to facilitate handling during necropsy. Therefore, animals of the first cohort (Groups 1-3) received an extra (29th) dose on the morning of Day 14 to permit terminal bleed and sacrifice within 2-4 hr of final dose administration.
The fundus was photographed on Day 0, at the time of lasing or shortly thereafter, and on Day 13 or 14, prior to sacrifice. At each time point, retinal vasculature was illuminated by intravenous (IV) injection of each animal, several minutes before photography, with 0.1 mL of a 10% solution of fluorescein dye. Each eye was dilated with a mydriatic and photographed with Kowa Small Animal Fundus Camera. The purpose of the fundus photography was to confirm the presence lesions following lasing and prior to necropsy. Any animal found not to have lesions would be removed from study and replaced.
Following fundus photography and terminal bleeds, animals were sacrificed per SOPs. […]
The slides were evaluated visually, qualitatively and semi-quantitatively. The nuclei of new vessels growing on the retinal were counted. […]

[2] = test system: rat laser-induced macular degeneration model (choroidal neovascularization); test: Example 5: hPGDS inhibitor, CNV volume by flat-mount fluorescence 3D modeling in rat laser-induced macular degeneration model; format: in vivo, BN rats (Rattus norvegicus; strain Brown Norway); settings: oral, twice (or once) each day on days -1 to 7; CNV volumes measured on day 7; FIGS. 6A, 6B, 6C
Method: FIG. 6A is a histogram of the results of the effect of the hPDGS inhibitor 2-Pyridin-2-yl-pyrimidine-5-carboxylic acid 3-[5-(1-hydroxy-1-methyl-ethyl)-1,2,4-oxadiazol-3-yl]-benzylamide (“Compound VII” for purposes of this figure) against a laser-induced choroidal neovascularization in the rat: 1st dose-response study. 2-Pyridin-2-yl-pyrimidine-5-carboxylic acid 3-[5-(1-hydroxy-1-methyl-ethyl)-1,2,4-oxadiazol-3-yl]-benzylamide was administered orally twice each day on days −1 to 7. Doxycycline was used as a positive control.
FIG. 6B is a histogram of the results of the effect of the hPDGS inhibitor 2-pyridin-2-yl-pyrimidine-5-carboxylic acid 3-[5-(1-hydroxy-1-methyl-ethyl)-1,2,4-oxadiazol-3-yl]-benzylamide (“Compound VII” for purposes of this figure) against a laser-induced choroidal neovascularization in the rat: 2nd dose-response study. 2-pyridine-2-yl-pyrimidine-5-carboxylic acid 3-[5-(1-hydroxy-1-methyl-ethyl)-1,2,4-oxadiazol-3-yl]-benzylamide was administered orally twice each day on days −1 to 7. CELEBREX was used as a positive control. […]
In this example, the effect of hPGDS antagonist 2-Pyridin-2-yl-pyrimidine-5-carboxylic acid 3-[5-(1-hydroxy-1-methyl-ethyl)-1,2,4-oxadiazol-3-yl]-benzylamide was evaluated using the rat laser-induced macular degeneration model. […] Choroidal neovascular (CNV) volumes were measured on day 7. […]

[3] = test system: rat laser-induced macular degeneration model (choroidal neovascularization); test: Example 3: DP antagonist, plaque volume of choroidal neovascularization in rat laser-induced macular degeneration model; format: in vivo, brown Norway rats (Rattus norvegicus); settings: oral, twice each day on days -1 to 14; CNV volumes measured on day 14; FIG. 4
From the text: FIG. 4 is a histogram of the results of an analysis of the effect of DP antagonist 2-(3-{6-[2-(2,4-dichloro-phenyl)-ethylamino]-2-methoxy-pyrimidin-4-yl}-phenyl)-2-methyl-propionic acid phosphoric acid salt (“Compound V” for purposes of this figure) on the plaque volume of choroidal neovascularization in the rat laser-induced macular degeneration model. Indomethacin was used as a positive control.
In this example, the effect of DP antagonist 2-(3-{6-[2-(2,4-dichloro-phenyl)-ethylamino]-2-methoxy-pyrimidin-4-yl}-phenyl)-2-methyl-propionic acid phosphoric acid salt (the compound) on plaque volume of choroidal neovascularization in the rat laser-induced macular degeneration model. As in the Examples discussed above, brown Norway rats (Rattus norvegicus) were used in this example. The rats received laser coagulation on day 0.[…] The compound was then administered orally twice each day on days −1 to 14. Indomethacin (positive control) was similarly administered twice daily. On day 14, the rats were sacrificed and choroidal neovascular (CNV) volumes were measured on day 14.

[4] = test system: rat laser-induced macular degeneration model (choroidal neovascularization); test: Example 4: hPGDS inhibitor, plaque volume of choroidal neovascularization in rat laser-induced macular degeneration model; format: in vivo, brown Norway rats; settings: oral, twice each day on days -1 to 14; measured after fourteen days; FIG. 5
Method: FIG. 5 is a histogram of the results of an analysis of the effect of the hPDGS inhibitor 4-Methyl-2-pyridin-2-yl-pyrimidine-5-carboxylic acid (5-fluoro-3-methyl-indol-1-yl)-amide (“Compound VI” for purposes of this figure) on the plaque volume of choroidal neovascularization in the rat laser-induced macular degeneration model. Indomethacin was used as a positive control.
In this example, the same experiment was performed with the rat laser-induced macular degeneration model to determine whether the hPDGS inhibitor 4-Methyl-2-pyridin-2-yl-pyrimidine-5-carboxylic acid (5-fluoro-3-methyl-indol-1-yl)-amide could limit the plaque volume of choroidal neovascularization
In particular, the hPDGS inhibitor 4-Methyl-2-pyridin-2-yl-pyrimidine-5-carboxylic acid (5-fluoro-3-methyl-indol-1-yl)-amide (the compound) was administered orally to the rats twice each day on days −1 to day 14. On day 0, a laser was used to induce choroidal neovascularization in the eye of the brown Norway rats. Indomethacin was administered to a control group similarly, i.e., twice each day from day −1 to day 14.
After fourteen days, the rats were sacrificed and the plaque volume of choroidal neovascularization in the eye was measured.

For `Cc1nc(-c2cccc(F)c2)ncc1C(=O)Nn1ccc2ccccc21` [2-(3-Fluoro-phenyl)-4-methyl-pyrimidine-5-carboxylic acid indol-1-ylamide], the “reduction of CNV plaque thickness” value ([1]; 10 mpk, PO) was 40.7%.

With `CCc1c(-c2ccc(C(C)(C)O)cc2)[nH]c2nccnc12` [2-[4-(7-Ethyl-5H-pyrrolo[2,3-b]pyrazin-6-yl)-phenyl]-propan-2-ol] the “reduction of CNV plaque thickness” value ([1]; 3 mpk, PO) was 11.3%, the “reduction of CNV plaque thickness” value ([1]; 10 mpk, PO) was 36.6% and the “reduction of CNV plaque thickness” value ([1]; 30 mpk, PO) was 32.2%.

In the case of `CC(C)(O)c1nc(-c2cccc(CNC(=O)c3cnc(-c4ccccn4)nc3)c2)no1` [2-Pyridin-2-yl-pyrimidine-5-carboxylic acid 3-[5-(1-hydroxy-1-methyl-ethyl)-1,2,4-oxadiazol-3-yl]-benzylamide], the “limiting CNV volume” value [2] is reported as “effective”.

With `COc1nc(NCCc2ccc(Cl)cc2Cl)cc(-c2cccc(C(C)(C)C(=O)O)c2)n1.O=P(O)(O)O` [2-(3-{6-[2-(2,4-Dichloro-phenyl)-ethylamino]-2-methoxy-pyrimidin-4-yl}-phenyl)-2-methyl-propionic Acid Phosphoric Acid Salt] the “limiting the volume of choroidal neovascularization” value [3] was “very effective”.

For `CC1(C)O[C@@H]2C[C@H]3[C@@H]4CCC5=CC(=O)C=C[C@]5(C)[C@@]4(F)[C@@H](O)C[C@]3(C)[C@]2(C(=O)CO)O1` [Triamcinolone Acetonide, reference compound], the “reduction of CNV plaque thickness” value ([1]; positive control, intravitreal injection) was 25.9%.

In the case of `Cc1nc(-c2ccccn2)ncc1C(=O)Nn1cc(C)c2cc(F)ccc21` [4-Methyl-2-pyridin-2-yl-pyrimidine-5-carboxylic acid (5-fluoro-3-methyl-indol-1-yl)-amide], the “limiting the plaque volume of choroidal neovascularization” value [4] is reported as “effective; also recorded: very effective”.
